pEC50: −log10 of the molar value.
Test system: HT-22
Assay: Neuroprotective activity against glutamate-induced cell death in mouse HT-22 cells assessed as increase in cell viability after 24 hrs by EZ-Cytox assay
Assay type: functional, cell-based
Conditions: HT-22, 24 h

Structure (SMILES) | pEC50
COc1cc(/C=C/C(=O)NC[C@H](O)c2ccc(O)cc2)ccc1O | 4.49
OC[C@H]1O[C@@H](OCc2ccccc2)[C@H](O)[C@@H](O)[C@@H]1O | < 4.00
O=C(O)/C=C\c1ccc(O)cc1 | < 4.00
O=C(/C=C/c1ccc(O)c(O)c1)O[C@@H]1C[C@](O)(C(=O)O)C[C@@H](OC(=O)/C=C/c2ccc(O)c(O)c2)[C@H]1O | < 4.00
COc1c(O)c(OC)c2c(=O)cc(-c3ccccc3)oc2c1OC | 4.36
COc1ccc(-c2cc(=O)c3c(O)cc(O[C@@H]4O[C@H](CO[C@@H]5O[C@@H](C)[C@H](O)[C@@H](O)[C@H]5O)[C@@H](O)[C@H](O)[C@H]4O[C@@H]4O[C@H](COC(C)=O)[C@@H](O)[C@H](O)[C@H]4O)cc3o2)cc1 | < 4.00
COc1ccc(-c2cc(=O)c3c(O)cc(O[C@@H]4O[C@H](CO[C@@H]5O[C@@H](C)[C@H](OC(C)=O)[C@@H](O)[C@H]5O)[C@@H](O)[C@H](O)[C@H]4O)cc3o2)cc1 | < 4.00
CC(C)=CCC/C(C)=C\CO[C@@H]1O[C@H](CO)[C@@H](O)[C@H](O)[C@H]1O | < 4.00
O=C(O)/C=C/C=C/c1ccc(O)c(O[C@@H]2O[C@H](COC(=O)/C=C/c3ccc(O)c(O)c3)[C@@H](O)[C@H](O)[C@H]2O)c1 | 4.25
O=C1C[C@@H](c2ccc(O)c(O)c2)Oc2c1ccc(O)c2O | 5.21
O=C1/C=C/c2ccc(O)c(c2)O[C@@H]2O[C@H](COC(=O)/C=C/c3cc(O)c(O)cc3C1)[C@@H](O)[C@H](O)[C@H]2O | 5.08
O=C(/C=C/c1ccc(O)cc1)c1ccc(O[C@@H]2O[C@H](CO)[C@@H](O)[C@H](O)[C@H]2O)cc1O | 4.14
O=C(/C=C/c1ccc(O)c(O)c1)O[C@H]1CC[C@@H](O)[C@H]1O | < 4.00
COc1ccc(/C=C/C(=O)c2ccc(O[C@@H]3O[C@H](CO)[C@@H](O)[C@H](O)[C@H]3O)cc2O)cc1O | 4.20
COc1ccc(-c2cc(=O)c3c(O)cc(O[C@@H]4O[C@H](CO[C@@H]5O[C@@H](C)[C@H](OC(C)=O)[C@@H](O)[C@H]5O)[C@@H](O)[C@H](O)[C@H]4O[C@@H]4O[C@H](COC(C)=O)[C@@H](O)[C@H](OC(C)=O)[C@H]4O)cc3o2)cc1 | < 4.00
COc1ccc(-c2cc(=O)c3c(O)cc(O[C@@H]4O[C@H](CO[C@@H]5O[C@@H](C)[C@H](OC(C)=O)[C@@H](O)[C@H]5O)[C@@H](O)[C@H](O)[C@H]4O[C@@H]4O[C@H](COC(C)=O)[C@@H](O)[C@H](O)[C@H]4O)cc3o2)cc1 | < 4.00
COc1ccc(/C=C/C(=O)c2ccc(O[C@@H]3O[C@H](CO)[C@@H](O)[C@H](O)[C@H]3O)c(O)c2O)cc1O | 5.33
COc1ccc(/C=C/C(=O)c2ccc(O)cc2O)cc1O | 4.45
COc1ccc(-c2cc(=O)c3c(O)cc(O[C@@H]4O[C@H](CO[C@@H]5O[C@@H](C)[C@H](OC(C)=O)[C@@H](O)[C@H]5O)[C@@H](O)[C@H](O)[C@H]4O[C@@H]4O[C@H](CO)[C@@H](O)[C@H](O)[C@H]4O)cc3o2)cc1 | 4.16

Structure (SMILES) | pEC50
CC(=O)/C=C/c1ccc(O)c(O[C@@H]2O[C@H](COC(=O)/C=C/c3ccc(O)c(O)c3)[C@@H](O)[C@H](O)[C@H]2O)c1 | 4.21
COc1ccc(-c2cc(=O)c3c(O)cc(O[C@@H]4O[C@H](CO[C@@H]5O[C@@H](C)[C@H](O)[C@@H](OC(C)=O)[C@H]5O)[C@@H](O)[C@H](O)[C@H]4O[C@@H]4O[C@H](COC(C)=O)[C@@H](O)[C@H](O)[C@H]4O)cc3o2)cc1 | < 4.00
CC(=O)/C=C/c1ccc(O)c(O)c1 | 5.82
O=Cc1ccc(O)cc1 [4-HYDROXYBENZALDEHYDE] | 4.48
COc1ccc(-c2cc(=O)c3c(O)cc(O[C@@H]4O[C@H](CO[C@@H]5O[C@@H](C)[C@H](O)[C@@H](O)[C@H]5O)[C@@H](O)[C@H](O)[C@H]4O)cc3o2)cc1 [ACACIIN] | 4.16
CC(=O)N[C@@H](CS)C(=O)O [ACETYLCYSTEINE] | 3.15
O=c1cc(-c2ccc(O)cc2)oc2cc(O)cc(O)c12 [APIGENIN] | < 4.00
O=c1cc(-c2ccc(O)cc2)oc2cc(O[C@@H]3O[C@H](CO)[C@@H](O)[C@H](O)[C@H]3O)cc(O)c12 [APIGETRIN] | < 4.00
O=C(O)/C=C/c1ccc(O)c(O)c1 [CAFFEIC ACID] | 4.11
O=C(O)/C=C/c1ccc(O)cc1 [COUMARIC ACID] | 5.19
COc1ccc(-c2cc(=O)c3c(O)cc(O)cc3o2)cc1O [DIOSMETIN] | 4.22
CCOC(=O)/C=C/c1ccc(O)c(O)c1 [ETHYL CAFFEATE] | 5.72
COc1cc2oc(-c3ccccc3)cc(=O)c2c(O)c1OC [MOSLOFLAVONE] | 4.63
O=C(O)c1ccc(O)cc1 [PARABEN] | < 4.00
O=C(O)c1ccc(O)c(O)c1 [PROTOCATECHUIC ACID] | < 4.00
O=C(/C=C/c1ccc(O)c(O)c1)O[C@H](Cc1ccc(O)c(O)c1)C(=O)O [ROSMARINIC ACID] | 4.07
O=C1/C(=C/c2ccc(O)c(O)c2)Oc2cc(O)ccc21 [SULFURETIN] | 5.46
COc1cc(C(=O)O)ccc1O [VANILLIC ACID] | 4.56

— ChEMBL document CHEMBL4699527, “Chemical Constituents from the Aerial Parts of Elsholtzia ciliata and Their Protective Activities on Glutamate-Induced HT22 Cell Death” (J Nat Prod, 2020)
